Where a SMILES comes first, the peptide text is derived from it. The star is where a group is joined. Myristoyl = CCCCCCCCCCCCCC(=O)*
Tests used:
[1] = system: CD44^hiCD24^lo CSCs in MDA-MB-231 cells; assay: FACS analysis of CD44^hiCD24^lo cancer stem cells in MDA-MB-231 cells treated with P1 analogues; assay type: cell-based, human; details: 50 μM peptide, 48 hours; for CD44^hiCD24^lo CSCs (%) / COI, Live Single CD44^hiCD24^lo CSCs (Cell Count): n = 1; for Average Inhibition of CSCs (%) / CD44^hiCD24^lo CSCs (%) Repeat 1 / CD44^hiCD24^lo CSCs (%) Repeat 2 / CD44^hiCD24^lo CSCs (%) Repeat 3: n = 3
Protocol: Analogues of P1 (Table 6) were designed and synthesized in accordance with the procedure of Example 5. The ability of these analogues to inhibit cancer stem cells was determined using FACS analysis on MDA-MB-231 cells, which constitutively contain approximately 90% CD44^hiCD24^lo cancer stem cells, treated with the peptides.
(§1) Non-adherent cells were removed during the washing steps.

MDA-MB-231 cells = assay type: cell-based, human; details: for COI (Cell Count) / COI, Live Single Cells (Cell Count) / COI, Single (Cell Count) / Total Cell Count: 50 μM peptide, 48 hours, n = 1; for killing of total MDA-MB-231 cells: not only the CSCs
Excerpt: as §1

[2] = system: CD44^hiCD24^lo CSCs in MCF7 cells; assay: FACS analysis of CD44^hiCD24^lo CSCs in MCF7 cells; assay type: cell-based, human; details: 50 μM peptide, 48 hours
Protocol: (§2) P1 Analogues were synthesized in accordance with the procedure of Example 5. 4×10^4 MDA-MB-231 cells or 1×10^4 induced or non-induced MCF7 cells were seeded in a 12 well plate with 1 mL complete media overnight. Induced MCF7 cells were prepared by stimulating cells with PMA/TGF-β and incubating for 12 hours. Cells were treated with 50 μM test peptide (dissolved in water) for 48 hours. Cells were then washed twice with 1 mL PBS and harvested by trypsinisation. Non-adherent cells were removed during the washing steps. Adherent cells were collected, and were subsequently stained with anti-human CD44, CD24 and Hoechst 33342 antibodies on ice for 30 mins. FACS was performed on BD FACS LSRII to measure the percentage of CD44^hiCD24^lo CSCs by dividing CD44^hiCD24^lo events by total live cell counts (Hoechst negative population) (as described in Fillmore and Kuperwasser (2007) Breast Cancer Res, 9: 303). The percentage of viable cells was calculated by dividing total live cell events by total single cells as described previously (Siemann and Keng (1986), Cancer Res, 46: 3556-3559).

MCF7 cells = details: MCF7 cells, 50 μM peptide, 48 hours
Protocol: as §2

induced MCF7 cells = assay: FACS CSC inhibition in induced MCF7 cells; assay type: cell-based, human; details: induced MCF7 cells (PMA/TGF-β), 50 μM peptide, 48 hours
Protocol: as §2
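Throughout, for COI, Live Single Cells (Cell Count): live means Hoechst-negative events among single cells.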

| Structure (SMILES) | Inhibition of CSCs (%) Repeat 1 [1] [%] | Inhibition of CSCs (%) Repeat 2 [1] [%] | Inhibition of CSCs (%) Repeat 3 [1] [%] | CD44^hiCD24^lo CSCs (%) [1] [%] | COI, Live Single CD44^hiCD24^lo CSCs (Cell Count) [1] | Average Inhibition of CSCs (%) [1] [%] | CD44^hiCD24^lo CSCs (%) Repeat 1 [1] [%] | CD44^hiCD24^lo CSCs (%) Repeat 2 [1] [%] | CD44^hiCD24^lo CSCs (%) Repeat 3 [1] [%] | COI (Cell Count) (MDA-MB-231 cells) | COI, Live Single Cells (Cell Count) (MDA-MB-231 cells) | COI, Single (Cell Count) (MDA-MB-231 cells) | Total Cell Count (MDA-MB-231 cells) | killing of total MDA-MB-231 cells (MDA-MB-231 cells) | CD44^hiCD24^lo CSC % [2] [%] | COI/Single Cells/Live/CD44^hiCD24^lo CSCs Count [2] | COI Count (MCF7 cells) | COI/Single Cell Count (MCF7 cells) | COI/Single Cells/Live Count (MCF7 cells) | Total Count (MCF7 cells) | other results |
| --- | --- | --- | --- | --- | --- | --- | --- | --- | --- | --- | --- | --- | --- | --- | --- | --- | --- | --- | --- | --- | --- |
| CCCCCCCCCCCCCC(=O)N[C@@H](CC(C)C)C(=O)N[C@@H](CCCCN)C(=O)N[C@@H](Cc1ccccc1)C(=O)N[C@H](C(=O)N[C@@H](Cc1ccccc1)C(=O)N[C@@H](CCCNC(=N)N)C(=O)N[C@@H](CC(C)C)C(=O)N[C@@H](CCCNC(=N)N)C(=O)N[C@@H](CCCCN)C(=O)NCC(=O)N[C@@H](CCCNC(=N)N)C(=O)N[C@@H](CCSC)C(=O)N[C@@H](CCSC)C(=O)N[C@@H](CC(=O)O)C(=O)N[C@H](C(=O)N[C@@H](CCCCN)C(=O)N[C@@H](CCCCN)C(N)=O)C(C)C)[C@@H](C)CC [Peptide 2853805, Myristoyl-LKFIFRLRKGRMMDVKK-NH2] (Myristoyl-LKFIFRLRKGRMMDVKK-NH2) | 100.00 | 100.00 | 100.00 | 0.00 | 0 | 100.00 | 0.00 | 0.00 | 0.00 | 52 | 1 | 32 | 3221 | killed the majority of the total MDA-MB-231 cells | 2.50 | 108 | 5356 | 4637 | 4320 | 10000 | CSC inhibition (%) (induced MCF7 cells): 64.52% |
| CCCCCCCCCCCCCC(=O)N[C@H](C(=O)N[C@@H](Cc1ccccc1)C(=O)N[C@H](C(=O)N[C@@H](Cc1ccccc1)C(=O)N[C@@H](CCCNC(=N)N)C(=O)N[C@@H](CC(C)C)C(=O)N[C@@H](CCCNC(=N)N)C(=O)N[C@@H](CCCCN)C(=O)NCC(=O)N[C@@H](CCCNC(=N)N)C(=O)N[C@@H](C)C(=O)N[C@@H](CCSC)C(=O)N[C@@H](CC(=O)O)C(=O)N[C@H](C(=O)N[C@@H](CCCCN)C(=O)N[C@@H](CCCCN)C(N)=O)C(C)C)[C@@H](C)CC)[C@@H](C)O [Peptide 2815312, Myristoyl-TFIFRLRKGRAMDVKK-NH2] (Myristoyl-TFIFRLRKGRAMDVKK-NH2) | 100.00 | 100.00 | 100.00 | 0.00 | 0 | 100.00 | 0.00 | 0.00 | 0.00 | 9 | 6 | 7 | 2993 | killed the majority of the total MDA-MB-231 cells | 3.28 | 142 | 5333 | 4517 | 4331 | 10000 | CSC inhibition (%) (induced MCF7 cells): 53.47% |
| CCCCCCCCCCCCCC(=O)N[C@H](C(=O)N[C@@H](Cc1ccccc1)C(=O)N[C@H](C(=O)N[C@@H](Cc1ccccc1)C(=O)N[C@@H](CCCNC(=N)N)C(=O)N[C@@H](CC(C)C)C(=O)N[C@@H](CCCNC(=N)N)C(=O)N[C@@H](CCCCN)C(=O)NCC(=O)N[C@@H](CCCNC(=N)N)C(=O)N[C@@H](CCSC)C(=O)N[C@@H](CCSC)C(=O)N[C@@H](C)C(=O)N[C@H](C(=O)N[C@@H](CCCCN)C(=O)N[C@@H](CCCCN)C(N)=O)C(C)C)[C@@H](C)CC)[C@@H](C)O [Peptide 2815314, Myristoyl-TFIFRLRKGRMMAVKK-NH2] (Myristoyl-TFIFRLRKGRMMAVKK-NH2) | 100.00 | 100.00 | 100.00 | 0.00 | 0 | 100.00 | 0.00 | 0.00 | 0.00 | 10 | 2 | 9 | 5611 | killed the majority of the total MDA-MB-231 cells | 2.75 | 145 | 6564 | 5443 | 5276 | 10000 | CSC inhibition (%) (induced MCF7 cells): 61.00% |
| CCCCCCCCCCCCCC(=O)N[C@@H](CC(C)C)C(=O)N[C@H](C(=O)N[C@@H](Cc1ccccc1)C(=O)N[C@H](C(=O)N[C@@H](Cc1ccccc1)C(=O)N[C@@H](CCCNC(=N)N)C(=O)N[C@@H](CC(C)C)C(=O)N[C@@H](CCCNC(=N)N)C(=O)N[C@@H](CCCCN)C(=O)NCC(=O)N[C@H](C(=O)N[C@@H](CCSC)C(=O)N[C@@H](CCSC)C(=O)N[C@@H](CC(=O)O)C(=O)N[C@H](C(=O)N[C@@H](CCCCN)C(=O)N[C@@H](CCCCN)C(N)=O)C(C)C)C(C)C)[C@@H](C)CC)[C@@H](C)O [Peptide 2853831, Myristoyl-LTFIFRLRKGVMMDVKK-NH2] (Myristoyl-LTFIFRLRKGVMMDVKK-NH2) | 79.77 | 84.29 | 89.06 | 11.83 | 11 | 84.37 | 18.13 | 14.09 | 9.82 | 377 | 93 | 280 | 10000 | – | – | – | – | – | – | – | – |
| CCCCCCCCCCCCCC(=O)N[C@@H](CCCCN)C(=O)N[C@H](C(=O)N[C@@H](Cc1ccccc1)C(=O)N[C@H](C(=O)N[C@@H](Cc1ccccc1)C(=O)N[C@@H](CCCNC(=N)N)C(=O)N[C@@H](CC(C)C)C(=O)N[C@@H](CCCNC(=N)N)C(=O)N[C@@H](CCCCN)C(=O)NCC(=O)N[C@@H](CCCNC(=N)N)C(=O)N[C@@H](CCSC)C(=O)N[C@@H](CCSC)C(=O)N[C@@H](CC(=O)O)C(=O)N[C@H](C(=O)N[C@@H](CCCCN)C(=O)N[C@@H](CCCCN)C(N)=O)C(C)C)[C@@H](C)CC)[C@@H](C)O [Peptide 2853803, Myristoyl-KTFIFRLRKGRMMDVKK-NH2] (Myristoyl-KTFIFRLRKGRMMDVKK-NH2) | 27.90 | 27.33 | 38.43 | 60.36 | 402 | 31.22 | 64.62 | 65.20 | 55.25 | 741 | 666 | 702 | 1115 | – | – | – | – | – | – | – | – |

— patent US20200339691A1, “PROTEINACEOUS MOLECULES AND USES THEREFOR” (priority 2018, published 2020)
